Laboratory results reported in ChEMBL document CHEMBL4825757, “Optimization of 4,6-Disubstituted Pyrido[3,2-d]pyrimidines as Dual MNK/PIM Inhibitors to Inhibit Leukemia Cell Growth” (J Med Chem, 2021).
Calls of active or inactive are those of the source. No cut-off for these calls is given here.

What was measured:
MOLM-13 [1] = assay: Antiproliferative activity against human MOLM13 cells assessed as reduction of cell viability incubated for 72 hrs by trypan blue staining based cell counting analysis; format: functional
[2] = target: T1, MAP kinase-interacting serine/threonine-protein kinase 2 (Homo sapiens, UniProt Q9HBH9); assay: Inhibition of wild type human partial length MKN2 (G63 to S388 residues) expressed in mammalian expression system at 1 uM by Kinomescan method relative to control
Target sequence in this assay (Q9HBH9 whole entry, looked up, the tested form may be a part): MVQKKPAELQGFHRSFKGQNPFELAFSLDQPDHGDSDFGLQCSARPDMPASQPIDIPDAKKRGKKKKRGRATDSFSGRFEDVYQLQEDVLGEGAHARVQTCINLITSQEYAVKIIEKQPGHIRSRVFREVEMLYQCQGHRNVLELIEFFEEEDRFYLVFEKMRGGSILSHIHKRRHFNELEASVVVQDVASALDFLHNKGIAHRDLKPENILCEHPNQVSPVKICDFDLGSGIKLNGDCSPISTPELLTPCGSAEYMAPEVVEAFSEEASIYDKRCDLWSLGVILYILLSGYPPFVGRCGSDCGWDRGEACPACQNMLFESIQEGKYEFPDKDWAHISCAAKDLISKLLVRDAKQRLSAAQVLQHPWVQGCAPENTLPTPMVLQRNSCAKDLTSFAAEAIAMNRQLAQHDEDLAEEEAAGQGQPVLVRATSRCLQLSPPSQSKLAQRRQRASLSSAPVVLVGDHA

[3] = target: Epidermal growth factor receptor (Homo sapiens, UniProt P00533); assay: Inhibition of wild-type human partial length EGFR (R669 to V1011 residues) expressed in bacterial expression system at 1 uM by Kinomescan method relative to control
[4] = target: MAP kinase-interacting serine/threonine-protein kinase 1 (Homo sapiens, UniProt Q9BUB5); assay: Inhibition of wild type human full length MKN1 (M1 to L424) expressed in mammalian expression system by HTRF method
[5] = target: T1, MAP kinase-interacting serine/threonine-protein kinase 2; assay: Inhibition of wild type human partial length MKN2 (G63 to S388 residues) expressed in mammalian expression system by HTRF method
Target sequence in this assay (Q9HBH9 whole entry, the tested form may be a part): as the sequence (Q9HBH9 whole entry, looked up, the tested form may be a part) above

[6] = target: Serine/threonine-protein kinase pim-2 (Homo sapiens, UniProt Q9P1W9); assay: Inhibition of recombinant human Pim2 (2 to end residues) using RSRHSSYPAGT as substrate incubated for 40 mins in presence of [gamma33P]ATP by scintillation counting based radiometry assay
[7] = target: Serine/threonine-protein kinase B-raf (Homo sapiens, UniProt P15056); assay: Inhibition of recombinant human B-Raf (416 to end residues) using myelin as substrate incubated for 40 mins in presence of [gamma-33P]-ATP by radiometric scintillation counting analysis
[8] = target: Receptor tyrosine-protein kinase erbB-2 (Homo sapiens, UniProt P04626); assay: Inhibition of ERBB2 (unknown origin) by mobility shift assay
[9] = target: Epidermal growth factor receptor (Homo sapiens, UniProt P00533, T790M); assay: Inhibition of recombinant human EGFR T790M mutant (696 to end residues) using GGMEDIYFEFMGG as substrate after 40 mins in presence of [gamma-33ATP] by radiometric scintillation counting analysis
K562 [10] = assay: Antiproliferative activity against human K562 cells assessed as reduction of cell viability incubated for 72 hrs by trypan blue staining based cell counting analysis; format: functional
[11] = target: T2, Serine/threonine-protein kinase PIM (Homo sapiens) (UniProt P11309+Q9P1W9+Q86V86); assay: Inhibition of PIM in human MOLM-13 cells assessed as reduction of BAD phosphorylation at 1 to 2 uM incubated for 12 hrs by western blot analysis; format: cell-based; conditions: dose 1-2 µM
MOLM-13 [12] = assay: Downregulation of c-myc levels in human MOLM-13 cells at 1 to 2 uM incubated for 12 hrs by western blot analysis; format: functional, cell-based; conditions: dose 1-2 µM
[13] = target: T2, Serine/threonine-protein kinase PIM (Homo sapiens); assay: Inhibition of PIM in human K562 cells assessed as reduction in phosphorylated 4EBP1 at 1 to 2 uM incubated for 24 hrs by western blot analysis; format: cell-based; conditions: dose 1-2 µM
K562 [14] = assay: Downregulation of c-myc levels in human K562 cells at 1 to 2 uM incubated for 24 hrs by western blot analysis; format: functional, cell-based; conditions: dose 1-2 µM
K562 [15] = assay: Downregulation of cyclin-D1 levels in human K562 cells at 1 to 2 uM incubated for 24 hrs by western blot analysis; format: functional, cell-based; conditions: dose 1-2 µM
MOLM-13 [16] = assay: Induction of cell cycle arrest in human MOLM-13 cells assessed as G1 phase at 1 uM incubated for 12 hr by propidium iodide based flow cytometry analysis (Rvb= 51.29%); format: functional
MOLM-13 [17] = assay: Induction of cell cycle arrest in human MOLM-13 cells assessed as sub-G1 phase at 2 uM incubated for 12 hr by propidium iodide based flow cytometry analysis (Rvb= 4.78%); format: functional
MOLM-13 [18] = assay: Induction of cell cycle arrest in human MOLM-13 cells assessed as G1 phase at 2 uM incubated for 12 hr by propidium iodide based flow cytometry analysis (Rvb= 51.29%); format: functional
MOLM-13 [19] = assay: Induction of apoptosis in human MOLM-13 cells assessed as necrotic cells at 1 uM incubated for 12 hrs by annexin-V and propidium iodide staining based flow cytometry analysis (reference value: 0.06%); format: functional
MOLM-13 [20] = assay: Induction of apoptosis in human MOLM-13 cells assessed as necrotic cells at 2 uM incubated for 12 hrs by annexin-V and propidium iodide staining based flow cytometry analysis (reference value: 0.06%); format: functional
MOLM-13 [21] = assay: Induction of apoptosis in human MOLM-13 cells assessed as live cells at 1 uM incubated for 12 hrs by annexin-V and propidium iodide staining based flow cytometry analysis (reference value: 91.49%); format: functional
MOLM-13 [22] = assay: Induction of apoptosis in human MOLM-13 cells assessed as live cells at 2 uM incubated for 12 hrs by annexin-V and propidium iodide staining based flow cytometry analysis (reference value: 91.49%); format: functional
MOLM-13 [23] = assay: Induction of apoptosis in human MOLM-13 cells assessed as early apoptotic cells at 1 uM incubated for 12 hrs by annexin-V and propidium iodide staining based flow cytometry analysis (reference value: 5.40%); format: functional
MOLM-13 [24] = assay: Antitumor activity against human MOLM-13 cells xenografted in NOD/SCID mouse assessed as tumor growth inhibition at 10 mg/kg, ip daily for 2 weeks; format: functional; conditions: MOLM-13, ip, 336 h, read-out: TGI
[25] = Toxicity in NOD/SCID mouse xenografted with human MOLM-13 cells assessed as abnormal changes in spleen at 5 to 10 mg/kg, ip daily for 2 weeks by hematoxylin-eosin staining based histological analysis; format: organism-based; conditions: in vivo, 336 h, dose 5-10 mg/kg
[26] = Metabolic stability in human liver microsomes assessed as half life preincubated for 10 mins followed by NADPH addition and further incubated upto 60 mins by LC-MS/MS analysis; format: ADME, Microsome; conditions: time <=70 min
[27] = Toxicity in NOD/SCID mouse xenografted with human MOLM-13 cells assessed as abnormal changes in lung at 5 to 10 mg/kg, ip daily for 2 weeks by hematoxylin-eosin staining based histological analysis; format: organism-based; conditions: in vivo, 336 h, dose 5-10 mg/kg
MOLM-13 [28] = assay: Antitumor activity against human MOLM-13 cells xenografted in NOD/SCID mouse assessed as decrease in cyclin-D1 levels at 10 mg/kg, ip daily for 2 weeks by western blot analysis; format: functional, organism-based
[29] = Metabolic stability in rat liver microsomes assessed as half life preincubated for 10 mins followed by NADPH addition and further incubated upto 60 mins by LC-MS/MS analysis; format: ADME, Microsome; conditions: time <=70 min
[30] = Intrinsic clearance in rat liver microsomes preincubated for 10 mins followed by NADPH addition and further incubated upto 60 mins by LC-MS/MS analysis; format: ADME, Microsome; conditions: time <=70 min, read-out: CLH
[31] = Drug concentration in Sprague Dawley rat at 2 mg/kg, iv measured after 24 hrs; format: ADME, organism-based; conditions: in vivo, read-out: Ct
[32] = Cmax in Sprague Dawley rat at 2 mg/kg, iv measured after 24 hrs; format: ADME, organism-based; design: route intravenous, time 24 hrs, dose 2 mg/kg; conditions: in vivo
[33] = Cmax in Sprague Dawley rat at 10 mg/kg, ip measured after 24 hrs; format: ADME, organism-based; design: route intraperitoneal, time 24 hrs, dose 10 mg/kg; conditions: in vivo
[34] = Cmax in Sprague Dawley rat at 10 mg/kg, po measured after 24 hrs; format: ADME, organism-based; design: route oral, time 24 hrs, dose 10 mg/kg; conditions: in vivo
[35] = Tmax in Sprague Dawley rat at 2 mg/kg, iv measured after 24 hrs; format: ADME, organism-based; conditions: in vivo
[36] = AUC (0 to infinity) in Sprague Dawley rat at 10 mg/kg, ip measured after 24 hrs; format: ADME, organism-based; design: route intraperitoneal, dose 10 mg/kg, time 24 hrs; conditions: in vivo

T2 sequence (P11309 whole entry, looked up): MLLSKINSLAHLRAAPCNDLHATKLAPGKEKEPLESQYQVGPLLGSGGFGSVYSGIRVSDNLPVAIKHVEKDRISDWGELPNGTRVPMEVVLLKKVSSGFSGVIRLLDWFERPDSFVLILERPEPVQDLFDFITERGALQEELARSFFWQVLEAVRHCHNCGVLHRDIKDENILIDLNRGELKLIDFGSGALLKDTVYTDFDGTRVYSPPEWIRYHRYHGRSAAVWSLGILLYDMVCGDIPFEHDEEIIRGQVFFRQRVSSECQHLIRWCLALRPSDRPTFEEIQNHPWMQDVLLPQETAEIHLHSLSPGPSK
T2 sequence (Q9P1W9 whole entry, looked up): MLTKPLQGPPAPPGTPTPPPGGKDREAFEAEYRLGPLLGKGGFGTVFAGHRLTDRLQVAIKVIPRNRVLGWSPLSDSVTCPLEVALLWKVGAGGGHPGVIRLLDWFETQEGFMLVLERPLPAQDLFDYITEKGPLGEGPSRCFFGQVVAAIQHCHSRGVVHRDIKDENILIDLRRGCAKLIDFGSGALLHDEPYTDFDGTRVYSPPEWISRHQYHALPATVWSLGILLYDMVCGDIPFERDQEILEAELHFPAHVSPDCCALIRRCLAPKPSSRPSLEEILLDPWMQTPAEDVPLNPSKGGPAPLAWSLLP
Sequence of Epidermal growth factor receptor (Homo sapiens, UniProt P00533) (P00533 whole entry, the tested form may be a part): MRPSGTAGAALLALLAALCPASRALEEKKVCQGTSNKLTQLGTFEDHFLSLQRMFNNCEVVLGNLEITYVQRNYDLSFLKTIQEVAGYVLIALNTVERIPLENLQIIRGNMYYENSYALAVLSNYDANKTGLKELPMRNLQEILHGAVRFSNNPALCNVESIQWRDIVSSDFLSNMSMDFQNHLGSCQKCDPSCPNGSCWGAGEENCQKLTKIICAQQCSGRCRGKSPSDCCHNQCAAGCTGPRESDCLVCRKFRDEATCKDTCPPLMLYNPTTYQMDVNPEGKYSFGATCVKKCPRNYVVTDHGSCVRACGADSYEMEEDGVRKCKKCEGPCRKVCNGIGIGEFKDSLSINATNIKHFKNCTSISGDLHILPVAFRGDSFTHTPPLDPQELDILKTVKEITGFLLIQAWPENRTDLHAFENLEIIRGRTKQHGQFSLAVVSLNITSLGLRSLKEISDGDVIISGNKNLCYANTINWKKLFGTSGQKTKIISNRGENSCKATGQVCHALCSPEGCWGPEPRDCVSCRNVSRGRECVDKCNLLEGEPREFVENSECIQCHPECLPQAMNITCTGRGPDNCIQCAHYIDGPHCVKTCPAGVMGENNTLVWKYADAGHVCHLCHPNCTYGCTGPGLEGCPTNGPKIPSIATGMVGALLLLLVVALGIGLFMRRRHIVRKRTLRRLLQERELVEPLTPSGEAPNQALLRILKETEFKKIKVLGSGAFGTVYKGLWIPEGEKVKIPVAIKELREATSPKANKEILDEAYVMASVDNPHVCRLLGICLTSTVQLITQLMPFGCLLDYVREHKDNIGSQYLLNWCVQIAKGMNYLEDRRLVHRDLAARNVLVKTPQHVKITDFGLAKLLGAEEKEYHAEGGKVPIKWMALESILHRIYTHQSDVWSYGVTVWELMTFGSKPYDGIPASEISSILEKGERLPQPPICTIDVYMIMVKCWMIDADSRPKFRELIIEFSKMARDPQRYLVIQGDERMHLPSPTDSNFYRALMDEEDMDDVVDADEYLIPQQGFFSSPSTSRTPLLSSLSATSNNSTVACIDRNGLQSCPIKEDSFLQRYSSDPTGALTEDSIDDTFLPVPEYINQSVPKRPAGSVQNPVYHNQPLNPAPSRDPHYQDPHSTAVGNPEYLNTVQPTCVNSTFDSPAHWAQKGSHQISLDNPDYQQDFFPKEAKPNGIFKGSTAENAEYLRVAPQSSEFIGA
Sequence of Serine/threonine-protein kinase B-raf (P15056 whole entry): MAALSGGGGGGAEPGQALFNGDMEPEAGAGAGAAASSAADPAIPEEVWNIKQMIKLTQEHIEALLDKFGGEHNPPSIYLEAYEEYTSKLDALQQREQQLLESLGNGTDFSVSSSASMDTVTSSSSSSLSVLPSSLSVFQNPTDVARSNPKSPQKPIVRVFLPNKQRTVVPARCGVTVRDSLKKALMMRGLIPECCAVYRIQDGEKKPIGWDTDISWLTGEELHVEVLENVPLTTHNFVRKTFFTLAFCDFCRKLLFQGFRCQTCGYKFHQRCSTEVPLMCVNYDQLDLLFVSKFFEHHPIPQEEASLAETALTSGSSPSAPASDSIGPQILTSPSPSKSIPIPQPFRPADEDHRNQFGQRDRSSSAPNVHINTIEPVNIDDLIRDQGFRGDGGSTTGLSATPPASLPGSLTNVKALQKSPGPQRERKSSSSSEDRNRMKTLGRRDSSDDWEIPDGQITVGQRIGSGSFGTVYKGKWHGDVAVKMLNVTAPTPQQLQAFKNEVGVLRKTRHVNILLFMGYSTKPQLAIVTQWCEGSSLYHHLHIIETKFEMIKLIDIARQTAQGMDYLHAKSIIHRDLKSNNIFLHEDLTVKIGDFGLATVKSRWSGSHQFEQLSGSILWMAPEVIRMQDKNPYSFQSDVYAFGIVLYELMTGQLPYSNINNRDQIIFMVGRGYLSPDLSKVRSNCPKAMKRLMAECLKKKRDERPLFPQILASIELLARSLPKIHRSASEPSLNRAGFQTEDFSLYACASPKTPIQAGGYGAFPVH
Sequence of Epidermal growth factor receptor (Homo sapiens, UniProt P00533, T790M) (P00533 25-1210 T790M limits assumed): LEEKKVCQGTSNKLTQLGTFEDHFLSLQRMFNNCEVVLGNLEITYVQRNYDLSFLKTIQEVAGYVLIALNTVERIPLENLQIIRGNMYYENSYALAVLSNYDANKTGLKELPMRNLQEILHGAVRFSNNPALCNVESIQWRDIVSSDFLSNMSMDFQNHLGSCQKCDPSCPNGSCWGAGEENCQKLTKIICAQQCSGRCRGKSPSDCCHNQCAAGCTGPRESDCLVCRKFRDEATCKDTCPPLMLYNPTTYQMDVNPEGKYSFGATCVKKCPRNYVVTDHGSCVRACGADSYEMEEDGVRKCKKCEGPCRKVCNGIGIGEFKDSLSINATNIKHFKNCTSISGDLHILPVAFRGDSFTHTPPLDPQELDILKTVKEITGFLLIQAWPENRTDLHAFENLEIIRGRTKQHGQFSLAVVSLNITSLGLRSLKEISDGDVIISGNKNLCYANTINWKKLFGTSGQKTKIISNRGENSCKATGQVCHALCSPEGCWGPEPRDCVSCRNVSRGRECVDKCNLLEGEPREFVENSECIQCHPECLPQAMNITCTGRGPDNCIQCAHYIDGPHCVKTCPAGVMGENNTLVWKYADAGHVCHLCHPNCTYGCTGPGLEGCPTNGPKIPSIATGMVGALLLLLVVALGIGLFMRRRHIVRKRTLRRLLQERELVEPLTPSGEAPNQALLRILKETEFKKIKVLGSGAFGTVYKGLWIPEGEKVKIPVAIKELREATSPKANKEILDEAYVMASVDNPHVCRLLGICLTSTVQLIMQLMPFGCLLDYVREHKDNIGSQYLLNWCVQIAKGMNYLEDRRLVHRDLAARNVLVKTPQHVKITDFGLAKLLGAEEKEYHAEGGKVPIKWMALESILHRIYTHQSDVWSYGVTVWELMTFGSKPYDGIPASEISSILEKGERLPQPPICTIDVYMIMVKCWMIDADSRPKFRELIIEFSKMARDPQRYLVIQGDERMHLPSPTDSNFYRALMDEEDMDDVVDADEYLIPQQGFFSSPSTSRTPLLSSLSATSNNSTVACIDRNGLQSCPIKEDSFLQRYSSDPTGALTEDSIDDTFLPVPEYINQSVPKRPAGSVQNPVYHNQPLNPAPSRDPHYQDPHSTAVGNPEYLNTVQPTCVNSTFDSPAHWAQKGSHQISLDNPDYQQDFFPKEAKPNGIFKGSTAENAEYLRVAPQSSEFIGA
Sequence of Serine/threonine-protein kinase pim-2 (Q9P1W9 whole entry): as the sequence (Q9P1W9 whole entry, looked up) above

CC(C)Oc1cc(F)ccc1Nc1ncnc2ccc(-c3ccc(C(=O)N4CCNCC4)cc3)nc12
GI50 (MOLM-13 [1]): 1.23 µM | inhibition [2]: 100% | inhibition [3]: 73% | IC50 [4]: 0.001 µM | IC50 [5]: 0.007 µM | IC50 [6]: 0.232 µM | IC50 [7]: 2.22 µM | IC50 [8]: 7.49 µM | IC50 [9]: > 10 µM | GI50 (K562 [10]): 2.19 µM | inhibition [11]: Active | Activity (MOLM-13 [12]): Active | inhibition [13]: Dose-Dependent Effect | Activity (K562 [14]): Active | Activity (K562 [15]): Active | Activity (MOLM-13 [16]): 61.13% | Activity (MOLM-13 [17]): 32.41% | Activity (MOLM-13 [18]): 44.38% | Activity (MOLM-13 [19]): 0.11% | Activity (MOLM-13 [20]): 0.73% | Activity (MOLM-13 [21]): 90.09% | Activity (MOLM-13 [22]): 61.5% | Activity (MOLM-13 [23]): 6.83% | inhibition in vivo at 10 mg/kg (MOLM-13 [24]): 57.6% | Activity [25]: Non-Toxic | half-life [26]: 204 min | Activity [27]: Non-Toxic | Activity (MOLM-13 [28]): Active | half-life [29]: 36.1 min | CLint scaled [30]: 68.8 mL/min/kg | concentration at 24 h [31]: 765 ng/mL | Cmax [32]: 652 ng/mL | Cmax [33]: 405 ng/mL | Cmax [34]: 224 ng/mL | Tmax [35]: 4.98 min | AUC(0-inf) [36]: 1680 ng·h/mL
